pIC50: −log10 of the molar value. Active and inactive are the calls of the source. The calls are words filed in the database; no cut-off is given here.

For 18 compounds, IC50, CC50 and Activity results are on record in ChEMBL document CHEMBL3397018, “Discovery of phenylpiperazine derivatives as IGF-1R inhibitor with potent antiproliferative properties in vitro” (Bioorg Med Chem Lett, 2015).

Data set [1] can be described thus: Antiproliferative activity against human SGC7901 cells after 48 hrs by MTT assay. To be noted: SGC-7901, 48 h. On the technique in general: Tetrazolium dyes change colour on reduction, which living cells bring about.
For data set [2], the target named is Insulin-like growth factor 1 receptor (Homo sapiens, UniProt P08069). In words: Inhibition of NH2-terminal glutathione S-transferase fused human recombinant IGF-IR catalytic domain expressed in insect cells using poly(Glu:Tyr) substrate by ELISA-based assay. Background: ELISA stands for enzyme-linked immunosorbent assay.
The nature of data set [3]: Antiproliferative activity against human SMMC7721 cells after 48 hrs by MTT assay. To be noted: SMMC-7721, 48 h.
The subject of data set [4] is MCF7. In words: cells. To be noted: Homo sapiens, MCF7, 48 h.
A further data set is described as follows: cells. To be noted: Homo sapiens, LS174T, 48 h.
Data set [5] in a line: Cytotoxicity against human QSG7701 cells after 72 hrs by MTT assay. The data set is classed as cell-based.
In data set [6] the test system is MCF7. The experiment in a line: Induction of apoptosis in human MCF7 cells after 24 hrs by DNA ladder detection based method. Type of data set: functional, cell-based.

Chain of Insulin-like growth factor 1 receptor (P08069 31-736 limits assumed): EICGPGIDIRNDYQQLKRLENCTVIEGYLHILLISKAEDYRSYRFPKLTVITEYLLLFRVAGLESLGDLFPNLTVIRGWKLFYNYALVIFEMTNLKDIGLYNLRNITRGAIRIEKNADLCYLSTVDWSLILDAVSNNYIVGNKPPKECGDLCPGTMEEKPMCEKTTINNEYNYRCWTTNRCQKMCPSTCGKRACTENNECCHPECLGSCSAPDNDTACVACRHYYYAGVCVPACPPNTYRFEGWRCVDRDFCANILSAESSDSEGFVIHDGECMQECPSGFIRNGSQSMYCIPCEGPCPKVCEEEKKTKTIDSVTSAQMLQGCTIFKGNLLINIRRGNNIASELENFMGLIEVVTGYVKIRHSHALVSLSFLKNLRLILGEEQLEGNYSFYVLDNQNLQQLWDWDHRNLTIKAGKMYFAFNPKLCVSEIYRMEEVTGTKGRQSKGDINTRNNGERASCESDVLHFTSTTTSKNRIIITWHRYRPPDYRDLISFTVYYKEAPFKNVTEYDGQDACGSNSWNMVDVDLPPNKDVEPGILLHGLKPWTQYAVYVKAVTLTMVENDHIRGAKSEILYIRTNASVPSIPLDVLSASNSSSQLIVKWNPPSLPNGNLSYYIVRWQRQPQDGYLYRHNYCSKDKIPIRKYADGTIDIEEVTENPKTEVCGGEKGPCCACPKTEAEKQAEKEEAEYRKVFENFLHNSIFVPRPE
Chain of Insulin-like growth factor 1 receptor (P08069 741-1367 limits assumed): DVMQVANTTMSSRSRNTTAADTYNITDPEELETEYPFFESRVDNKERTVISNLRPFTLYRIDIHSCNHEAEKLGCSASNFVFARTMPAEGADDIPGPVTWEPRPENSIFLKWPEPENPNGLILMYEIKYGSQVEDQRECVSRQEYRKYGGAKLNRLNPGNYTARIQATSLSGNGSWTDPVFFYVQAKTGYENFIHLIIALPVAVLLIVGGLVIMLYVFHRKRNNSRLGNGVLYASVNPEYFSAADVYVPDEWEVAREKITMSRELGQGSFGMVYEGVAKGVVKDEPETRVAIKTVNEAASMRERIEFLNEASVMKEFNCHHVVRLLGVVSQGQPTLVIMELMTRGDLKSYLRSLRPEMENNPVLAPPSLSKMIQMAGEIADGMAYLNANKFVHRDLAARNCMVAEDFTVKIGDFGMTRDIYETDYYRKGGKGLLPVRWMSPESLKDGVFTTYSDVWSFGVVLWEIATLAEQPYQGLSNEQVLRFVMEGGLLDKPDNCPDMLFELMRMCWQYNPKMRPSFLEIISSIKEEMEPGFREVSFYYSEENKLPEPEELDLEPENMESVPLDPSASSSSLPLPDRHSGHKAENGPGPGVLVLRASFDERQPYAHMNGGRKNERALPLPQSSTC

For `OC(CN1CCN(Cc2ccccc2)CC1)c1ccc(Br)cc1` (stereo not given), the pIC50 (in general, the negative decadic logarithm of the IC50, by convention in mol/L) in data set [1] was 5.43; in data set [2], 6.25; in data set [3] it was 5.45; in the data set on MCF7 [4], 5.54; in “cells” it was 5.57.
In the case of `OC(CN1CCN(c2ccc(Cl)c(Cl)c2)CC1)c1ccc(Br)cc1` (stereo not given), the pIC50 in data set [1] was 5.67; in data set [3], 5.78; in the data set on MCF7 [4], 6.11; in the data set “cells”, 5.72.
For the compound `OC(CN1CCN(c2ccccc2F)CC1)c1ccc(Br)cc1` (stereo not given), the pIC50 was 4.80 in data set [1], 5.02 in data set [3], 4.79 with MCF7 [4] and 5.27 in “cells”.
`OC(CN1CCN(c2cccc(Cl)c2)CC1)c1ccc(Br)cc1` (stereo not given): the pIC50 in data set [1] is 4.65; in data set [3] it was 5.11; in the data set on MCF7 [4] it was 4.98; in the data set “cells”, 4.77.
`OC(CN1CCN(c2cccc(Cl)c2Cl)CC1)c1ccc(Br)cc1` (stereo not given): the pIC50 in data set [1] was 5.61; in data set [3] it was 5.69; with MCF7 [4], 5.97; in the data set “cells” it was 5.72.
For the compound `OC(CN1CCN(c2ccccc2Cl)CC1)c1ccc(Br)cc1` (stereo not given), the pIC50 was 5.34 in data set [1], 5.41 in data set [3], 5.61 with MCF7 [4] and 5.60 in the data set “cells”.
For `OC(CN1CCN(c2cccc(C(F)(F)F)c2)CC1)c1ccc(Br)cc1` (stereo not given), the pIC50 in data set [1] is 5.68; in data set [3], 5.92; in the data set on MCF7 [4] it was 6.07; in the data set “cells”, 6.02. The CC50 (commonly the concentration that lowers cell viability or growth by half) at 72 h in data set [5] was 6600 µM.
Take `OC(CN1CCN(C(c2ccccc2)c2ccccc2)CC1)c1ccc(Br)cc1` (stereo not given): the pIC50 in data set [1] is 6.60; in data set [2], 7.47; in data set [3], 6.87; in the data set on MCF7 [4], 7.43; in “cells” it was 6.95. Besides, the midpoint of cytotoxicity in data set [5], the CC50 at 72 h, lay at 2000 µM.
Turning to `O=[N+]([O-])c1ccc(N2CCN(CC(O)c3ccc(Br)cc3)CC2)cc1` (stereo not given), the negative-log IC50 (pIC50) in data set [1] is 5.74; in data set [3], 5.82; with MCF7 [4] it was 5.88; in “cells”, 5.66. Further, the midpoint of cytotoxicity in data set [5], the CC50 at 72 h, lay at 1600 µM.
As to `Cc1ccc(N2CCN(CC(O)c3ccc(Br)cc3)CC2)c(C)c1` (stereo not given), the pIC50 is 5.86 in data set [1], 5.83 in data set [3], 6.06 in the data set on MCF7 [4] and 5.74 in “cells”.
For `OC(CN1CCN(c2ccccn2)CC1)c1ccc(Br)cc1` (stereo not given), in that order: 5.24, 5.21, 5.47 and 5.18.
With `OC(CN1CCN(C(c2ccc(F)cc2)c2ccc(F)cc2)CC1)c1ccc(Br)cc1` (stereo not given), the pIC50 in data set [1] is 6.94; in data set [3] it was 6.82; in the data set on MCF7 [4] it was 7.62; in “cells” it was 7.17. Further, the result with MCF7 [6] was Active.
`COc1ccccc1N1CCN(CC(O)c2ccc(Br)cc2)CC1` (stereo not given): the pIC50 was 5.38 in data set [1], 5.64 in data set [3], 5.92 with MCF7 [4] and 5.59 in “cells”.
For `Cc1cc(N2CCOCC2)cc2[nH]c(-c3c(NC[C@@H](O)c4cccc(Cl)c4)cc[nH]c3=O)nc12`, the negative logarithm of the IC50 (pIC50) was 5.54 in data set [1], 5.59 in data set [3], 5.76 with MCF7 [4] and 5.69 in the data set “cells”. This compound also had a CC50 at 72 h in data set [5] of 32000 µM.
In the case of `COc1cccc(N2CCN(CC(O)c3ccc(Br)cc3)CC2)c1` (stereo not given), the negative logarithm of the IC50 (pIC50) in data set [1] was 5.48; in data set [3], 5.54; with MCF7 [4], 5.84; in the data set “cells”, 5.69.
On to `OC(CN1CCN(c2ccc(F)cc2)CC1)c1ccc(Br)cc1` (stereo not given), for which the pIC50 was 4.99 in data set [1], 5.09 in data set [3], 4.94 in the data set with MCF7 [4] and 5.34 in the data set “cells”.
Turning to `OC(CN1CCN(c2ccccc2)CC1)c1ccc(Br)cc1` (stereo not given), the negative logarithm of the IC50 (pIC50) in data set [1] is 5.03; in data set [3], 5.12; in the data set with MCF7 [4], 5.24; in “cells”, 5.05. The CC50 at 72 h in data set [5] amounted to 250 µM.
Take `COc1ccc(N2CCN(CC(O)c3ccc(Br)cc3)CC2)cc1` (stereo not given): the pIC50 in data set [1] is 5.46; in data set [3], 5.55; with MCF7 [4] it was 5.87; in “cells”, 5.59.
